Reference: patent US20080255206A1, “Rxr Agonists and Antagonists, Alone or in Combination with Ppar Ligands, in the Treatment of Metabolic and Cardiovascular Diseases” (priority 2005, published 2008)

Legend:
[1] = tested on: skin inflammation induced by Candidin or UV-B; experiment: Clinical phase I trial, skin inflammation induced by candidin or UV-B irradiation; format: in vivo, human
Experimental: Four healthy volunteers participate. Inclusion criteria are: Age above 18 years, male or female. They are informed, with written letter of consent. Exclusion criteria are: Preexistant dermatological diseases, known allergy to test agents.
Inflammation inducing agents: Candidin is administered intradermally (see also D. Poffet, Comparaison entre le pouvoir vaso-constricteur d'un corticoide topique et l'inhibition de la dermite à la candidine après intradermorèaction (IDR). Thèse, Universitè de Genève, 1984). UV-B rays are administered by a UV-B lamp.
Inflammation is measured quantitatively. The area of the inflamed skin is measured in cm^2. The thickness of the skin is monitored by Ultrasound at 20 MHz. Erythema is measured by colorimetric determination employing a Minolta CR 20. […]
All determinations are recorded on a scale from 0 to 4: • 0=no reduction • 1=slight reduction (10 to 20%) • 2=moderate reduction (21 to 40%) • 3=marked reduction (41 to 70%) • 4=very marked reduction (71 to 100%) • Compared to vehicle control.

normal skin of mice = experiment: Effect on normal, non-inflamed skin of mice; format: in vivo, C57BL/6 mice
Experimental: The effect of the RXR antagonist compound 15 on normal skin of mice is investigated. The ears of C57BL/6 mice are treated epicutaneously (topically) for 4 consecutive days with compound 15 in a concentration of 0.05% and 2.5% in acetone/ethanol (1:1, v/v). Comparison with vehicle control. Skin reactions, in particular inflammation, erythema, desquamation, and edema, are observed daily. Myeloperoxidase (MPO) activity is determined. The activity of MPO is considered the most sensitive criterium for the assessment of inflammation of the skin (see above, Examples 6 and 7).

rats = experiment: 4-weeks toxicology study in rats, oral gavage; format: in vivo
Source text: […]. […] This symptom of hair loss is observed, dose-dependently, with all doses. Clinical pathology is limited to minor disturbances.

[2] = Pharmacokinetics, daily oral gavage for 14 days in mice; conditions: mouse, in vivo; for AUC / Cmax: oral
Experimental: Daily administration of compound 15 by oral gavage for 14 days in mice: Compound 15 is administered daily by oral gavage as a microsuspension in oil in doses of 30 to 400 mg/kg/day for 14 days in mice.

## CCCCOc1c(\C(C)=C/C=C/C(C)=C/C(=O)O)cc(C(C)(C)C)cc1C(C)(C)C [Compound 15, (2E,4E,6Z)-7-[2-butoxy-3,5-bis(1,1-dimethylethyl)phenyl]-3-methyl-2,4,6-octatrienoic acid]
[1]; 4 healthy volunteers, topical, candidin or UV-B induced
  Reduction of the inflammatory reaction compared to vehicle control: very marked
[1]; topical lotion 1%
  Anti-inflammatory effect compared with corticosteroids or macrolides: even superior to that of corticosteroids or macrolides
Normal skin of mice; epicutaneous 0.05% and 2.5%, 4 consecutive days
  Clinical signs or symptoms of skin inflammation on normal skin: does not induce clinical signs or symptoms of a skin inflammation
Normal skin of mice; normal skin, 0.05%
  MPO activity compared to the vehicle control (in words): no significant change
Normal skin of mice; normal skin, 2.5%
  MPO activity, % of that of the vehicle control: 57%
rats; 4 weeks oral gavage
  Haematology and clinical chemistry: No abnormalities in haematology, no abnormalities in clinical chemistry
  Histopathology: only some changes in the 500/750 mg/kg dose group
  Transaminases, triglycerides and cholesterol: No increase in transaminases, triglycerides, and cholesterol
rats; daily doses of 50, 250, 500, eventually 750 mg/kg, 4 weeks
  Tolerability, oral: well tolerated with the exception of patchy alopecia
[2]; 30 mg/kg
  AUC: 13200 ng·h/mL
  Cmax: 4440 ng/mL
[2]; 100 mg/kg
  AUC: 25700 ng·h/mL
  Cmax: 8920 ng/mL
[2]; oral gavage 30 to 400 mg/kg/day, 14 days
  Tmax: 0.5 to 2 h
